According to US5747660A, “Nucleic acid encoding prostaglandin F2α receptor regulatory protein” (priority 1995, dated 1998):

Columns and labels:
[1] = tested on: prostaglandin F2α receptor (FP); experiment: [3H]PGF2α specific binding to COS cells cotransfected with FP cDNA and a test cDNA construct; type: cell-based, rat, mouse; settings: COS cells cotransfected with FP + the named DNA; FP alone = 100
[2] = tested on: prostaglandin F2α receptor (FP); experiment: Cotransfection of a third construct along with FP and FPRP, [3H]PGF2α binding; type: cell-based; settings: FP + FPRP + the named third construct; FP + pSG5 = 100
Description: Therefore, a strategy based on cotransfection of a third construct (along with FP and FPRP) was pursued. These third party constructs included ones coding for the protease inhibitors alpha-l trypsin inhibitor and crmA, an inhibitor of cell death, bcl2, and few nonspecific control molecules including the vitamin D receptor, a secreted immunoglobulin molecule, and the empty parent vector pSG5 only. All groups and treatments were compared with control treatment of FP+pSG5 vs. FP+FPRP.

[3] = tested on: prostaglandin F2α receptor (FP); experiment: Effect of intracellular messenger altering agents on [3H]PGF2α binding and on FPRP inhibition of it; type: cell-based; settings: for % Control [^3 H]PGF2α Binding, FP + FPRP: FP + FPRP transfected cells treated with the agent; for % Control [^3 H]PGF2α Binding, FP + pSG5: FP + pSG5 transfected cells treated with the agent; for % Inhibition (FPRP inhibition of [^3 H]PGF2α binding): in presence of the agent at the concentration/time given; for effect of agent on FPRP inhibition of [^3 H]PGF2α binding (words): FP + FPRP transfected cells pretreated with the agent; for effect of agent on basal [^3 H]PGF2α binding: FP transfected cells pretreated with the agent
Experimental: In a third experiment, transfected cells were treated for 30 min with exposure to the following: phorbol 12-myristate 13-acetate 10^-8 M, prostaglandin E1, 10^-7 M, A23187 10^-6 M, okadaic acid 10^-6 M, or 8-Br-cAMP 10^-5 M (Table 4).
The effect of brefeldin A (3 μg/ml, 2 hr), chloroquine (100 μM, 6 hr) and tunicamysin (2.5 μg/ml, 20 hr) was determined.

[4] = biological target: prostaglandin F2α receptor (FP), cDNA construct whose species the place does not tell
[5] = biological target: rat prostaglandin F2α receptor regulatory protein (FPRP) (rat)

Row | Molecule | % Control [^3 H]PGF2α Binding, FP + FPRP [3] [%] | % Control [^3 H]PGF2α Binding, FP + pSG5 [3] [%] | % Inhibition (FPRP inhibition of [^3 H]PGF2α binding) [3] [%] | % control ^3 H!PGF2α specific binding, co-transfection [4] [% control] | also measured
1 | 1 Trypsin Inhibitor: protease inhibitor alpha-l trypsin inhibitor, cotransfected construct |  |  |  |  | % CONTROL, [^3 H]PGF2α specific binding [1]: 141 ± 3%; % Control [^3 H]PGF2α Binding [2]: 38 ± 3%
2 | Nc1ncnc2c1nc(Br)n2[C@@H]1O[C@@H]2COP(=O)(O)O[C@H]2[C@H]1O [8-Br-cAMP] | 52 ± 3 | 94 ± 6 | 45 |  | 
3 | C[C@H]1CCC/C=C/[C@@H]2C[C@H](O)C[C@H]2[C@H](O)/C=C/C(=O)O1 [Brefeldin A, brefeldin A] | 27 ± 3 | 91 ± 3 | 70 |  | effect of agent on FPRP inhibition of [^3 H]PGF2α binding (words) [3]: no effect; effect of agent on FPRP inhibition of [^3 H]PGF2α binding (words) ([3]; listed as brefeldin A): little or no effect; effect of agent on basal [^3 H]PGF2α binding [3]: little or no effect
4 | CNc1ccc2oc(C[C@H]3O[C@@]4(CC[C@H]3C)O[C@H]([C@H](C)C(=O)c3ccc[nH]3)[C@H](C)C[C@H]4C)nc2c1C(=O)O [Calcium ionophore A23187] | 51 ± 6 | 102 ± 6 | 50 |  | 
5 | CCN(CC)CCCC(C)Nc1ccnc2cc(Cl)ccc12 (stereo not drawn) [Chloroquine, chloroquine] | 37 ± 3 | 91 ± 3 | 59 |  | effect of agent on FPRP inhibition of [^3 H]PGF2α binding (words) [3]: little or no effect; effect of agent on basal [^3 H]PGF2α binding [3]: little or no effect
6 | C=C1[C@@H](O)[C@@H]2O[C@]3(CC[C@H](/C=C/[C@@H](C)[C@@H]4CC(C)=C[C@@]5(O[C@H](C[C@@](C)(O)C(=O)O)CC[C@H]5O)O4)O3)CC[C@H]2O[C@@H]1[C@@H](O)C[C@H](C)[C@H]1O[C@@]2(CCCCO2)CC[C@H]1C [Okadaic acid, okadaic acid] | 45 ± 3 | 94 ± 3 | 52 |  | 
7 | CCCCC[C@H](O)/C=C/[C@H]1[C@H](O)CC(=O)[C@@H]1CCCCCCC(=O)O [PGE1, prostaglandin E1] | 51 ± 3 | 100 ± 3 | 49 |  | 
8 | CCCCCCCCCCCCCC(=O)OC1C(C)C2(O)C(C=C(CO)CC3(O)C(=O)C(C)=CC32)C2C(C)(C)C12OC(C)=O (stereo not drawn) [Phorbol 12-myristate 13-acetate, phorbol 12-myristate 13-acetate] | 54 ± 3 | 105 ± 7 | 50 |  | 
9 | Progesterone Receptor |  |  |  | 103 | 
10 | Prolactin Receptor |  |  |  | 130 | 
11 | TGN38 |  |  |  | 135 | 
12 | Vitamin D receptor |  |  |  | 131 | % control ^3 H!PGF2α binding, third construct co-transfected with FP and FPRP [5]: 36 % control
13 | Vitamin D receptor: over-expressed control protein, cotransfected construct |  |  |  |  | % CONTROL, [^3 H]PGF2α specific binding [1]: 131 ± 7%; % Control [^3 H]PGF2α Binding [2]: 36 ± 3%
14 | alpha-1 trypsin inhibitor |  |  |  | 141 | % control ^3 H!PGF2α binding, third construct co-transfected with FP and FPRP [5]: 38 % control
15 | bcl-2 |  |  |  | 84 | % control ^3 H!PGF2α binding, third construct co-transfected with FP and FPRP [5]: 30 % control
16 | bcl-2: an inhibitor of cell death, cotransfected construct |  |  |  |  | % CONTROL, [^3 H]PGF2α specific binding [1]: 84 ± 5%; % Control [^3 H]PGF2α Binding [2]: 30 ± 3%
17 | crmA |  |  |  | 141 | % control ^3 H!PGF2α binding, third construct co-transfected with FP and FPRP [5]: 29 % control
18 | tunicamycin | 23 ± 3 | 46 ± 3 | 50 |  | effect of agent on FPRP inhibition of [^3 H]PGF2α binding (words) [3]: approximately the same extent; effect of agent on basal [^3 H]PGF2α binding [3]: decreased
19 | βPDGF Receptor |  |  |  | 90 | 
20 | Prolactin Receptor: over-expressed control protein, cotransfected construct (protein, UniProt P16471 25-622, looked up, over-expressed construct) Prolactin receptor: QLPPGKPEIFKCRSPNKETFTCWWRPGTDGGLPTNYSLTYHREGETLMHECPDYITGGPNSCHFGKQYTSMWRTYIMMVNATNQMGSSFSDELYVDVTYIVQPDPPLELAVEVKQPEDRKPYLWIKWSPPTLIDLKTGWFTLLYEIRLKPEKAAEWEIHFAGQQTEFKILSLHPGQKYLVQVRCKPDHGYWSAWSPATFIQIPSDFTMNDTTVWISVAVLSAVICLIIVWAVALKGYSMVTCIFPPVPGPKIKGFDAHLLEKGKSEELLSALGCQDFPPTSDYEDLLVEYLEVDDSEDQHLMSVHSKEHPSQGMKPTYLDPDTDSGRGSCDSPSLLSEKCEEPQANPSTFYDPEVIEKPENPETTHTWDPQCISMEGKIPYFHAGGSKCSTWPLPQPSQHNPRSSYHNITDVCELAVGPAGAPATLLNEAGKDALKSSQTIKSREEGKATQQREVESFHSETDQDTPWLLPQEKTPFGSAKPLDYVEIHKVNKDGALSLLPKQRENSGKPKKPGTPENNKEYAKVSGVMDNNILVLVPDPHAKNVACFEESAKEAPPSLEQNQAEKALANFTATSSKCRLQLGGLDYLDPACFTHSFH |  |  |  |  | % CONTROL, [^3 H]PGF2α specific binding [1]: 130 ± 7%
21 | Progesterone Receptor: over-expressed control protein, cotransfected construct (protein, UniProt P06401 1-933, looked up) Progesterone receptor: MTELKAKGPRAPHVAGGPPSPEVGSPLLCRPAAGPFPGSQTSDTLPEVSAIPISLDGLLFPRPCQGQDPSDEKTQDQQSLSDVEGAYSRAEATRGAGGSSSSPPEKDSGLLDSVLDTLLAPSGPGQSQPSPPACEVTSSWCLFGPELPEDPPAAPATQRVLSPLMSRSGCKVGDSSGTAAAHKVLPRGLSPARQLLLPASESPHWSGAPVKPSPQAAAVEVEEEDGSESEESAGPLLKGKPRALGGAAAGGGAAAVPPGAAAGGVALVPKEDSRFSAPRVALVEQDAPMAPGRSPLATTVMDFIHVPILPLNHALLAARTRQLLEDESYDGGAGAASAFAPPRSSPCASSTPVAVGDFPDCAYPPDAEPKDDAYPLYSDFQPPALKIKEEEEGAEASARSPRSYLVAGANPAAFPDFPLGPPPPLPPRATPSRPGEAAVTAAPASASVSSASSSGSTLECILYKAEGAPPQQGPFAPPPCKAPGASGCLLPRDGLPSTSASAAAAGAAPALYPALGLNGLPQLGYQAAVLKEGLPQVYPPYLNYLRPDSEASQSPQYSFESLPQKICLICGDEASGCHYGVLTCGSCKVFFKRAMEGQHNYLCAGRNDCIVDKIRRKNCPACRLRKCCQAGMVLGGRKFKKFNKVRVVRALDAVALPQPVGVPNESQALSQRFTFSPGQDIQLIPPLINLLMSIEPDVIYAGHDNTKPDTSSSLLTSLNQLGERQLLSVVKWSKSLPGFRNLHIDDQITLIQYSWMSLMVFGLGWRSYKHVSGQMLYFAPDLILNEQRMKESSFYSLCLTMWQIPQEFVKLQVSQEEFLCMKVLLLLNTIPLEGLRSQTQFEEMRSSYIRELIKAIGLRQKGVVSSSQRFYQLTKLLDNLHDLVKQLHLYCLNTFIQSRALSVEFPEMMSEVIAAQLPKILAGMVKPLLFHKK |  |  |  |  | % CONTROL, [^3 H]PGF2α specific binding [1]: 103 ± 5%
